Experimental data taken from US20200306295A1, “METHOD AND DEVICE FOR ANNIHILATION OF Staphylococcus aureus” (priority 2017, published 2020).

System: 200 kinds of cytokines
Assay: Fold change of 200 cytokines in homogenized wound tissue
Assay type: in vivo, Balb/c mice
Conditions: mean; wound tissue
Description: To quantify the physiological condition of the wound tissues, we measured the concentrations of 200 kinds of cytokines (Table. 1) from the supernatant of homogenized tissue solution. Cytokines are small secreted proteins released by cells and have specific effect on the interactions and communications between cells (25).
To initiate the formation of a skin wound, five groups (n=5) of eight-week old female Balb/c mice (obtained from Harlan Laboratories, Indianapolis, Ind., USA) were disinfected with ethanol (70%) and shaved on the middle of the back (approximately a one-inch by one-inch square region around the injection site) one day prior to infection as described from a reported procedure (3). To prepare the bacterial inoculum, an aliquot of overnight culture of MRSA USA300 was transferred to fresh Tryptic soy broth and shaken at 37° C. until an OD600 value of ˜1.0 was achieved. The cells were centrifuged, washed once with PBS, re-centrifuged, and then re-suspended in PBS. Mice subsequently received an intradermal injection (40 μL) containing 2.40×10^9 CFU/mL MRSA USA300.
One group of mice was left untreated (negative control). Each group of mice receiving a particular treatment regimen was housed separately in a ventilated cage with appropriate bedding, food, and water. […] Mice were treated twice daily (once every 12 hours) for three days, before they were humanely euthanized via CO2 asphyxiation 12 hours after the last dose was administered. The region around the skin wound was lightly swabbed with ethanol (70%) and excised. The tissue was subsequently homogenized in PBS. The homogenized tissue was then serially diluted in PBS before plating onto mannitol salt agar plates. Plates were incubated for at least 19 hours at 37° C. before viable MRSA CFU/mL were counted for each group. Outlier was removed based upon the Dixon Q Test.

What does the source list for `CC(=O)O[C@H]1C[C@@]2(C)[C@@H](C[C@@H](O)[C@H]3[C@@]4(C)CC[C@@H](O)[C@@H](C)[C@@H]4CC[C@@]32C)/C1=C(\CCC=C(C)C)C(=O)O` [fusidic acid]?
fold change of IL-1ra: 0.3851; fold change of IL-2: 0.0606; fold change of IL-2 Ra: 0.1879; fold change of IL-3: −0.1398; fold change of IL-3 Rb: 0.0789; fold change of IL-4: −0.0096; fold change of IL-5: −0.0953; fold change of IL-6: 0.2682; fold change of IL-7: 0.1116; fold change of IL-7 Ra: −0.7276; fold change of IL-9: 0.1408; fold change of IL-10: −0.0351; fold change of IL-12p40: 0.0324; fold change of IL-12p70: 0.0029; fold change of IL-13: −0.5654; fold change of IL-15: −0.0506; fold change of IL-17: 0.2684; fold change of IL-17B: −0.0513; fold change of IL-17B R: 0.4884; fold change of IL-17E: −0.1800; fold change of IL-17F: 0.2592; fold change of IL-20: 0.0953; fold change of IL-21: −0.4052; fold change of IL-22: −0.0487; fold change of IL-23: 0.2627; fold change of IL-28: −0.1588; fold change of IL-33: 0.3416; fold change of JAM-A: 0.3062; fold change of KC: 0.0909; fold change of Kremen-1: 0.2672; fold change of L-Selectin: −0.3559; fold change of LIX: −0.0313; fold change of LOX-1: 0.0568; fold change of Leptin: −0.1199; fold change of Leptin R: 0.1134; fold change of Limitin: −0.1844; fold change of Lipocalin-2: −0.0695; fold change of Lungkine: −0.0819; fold change of Lymphotactin: 0.0908; fold change of MCP-1: 0.0071; fold change of MCP-5: −0.0915; fold change of MCSF: −0.5503; fold change of MDC: −0.0764; fold change of MFG-E8: 0.4647; fold change of MIG: 0.5378; fold change of MIP-1a: −0.3165; fold change of MIP-1b: −0.5769; fold change of MIP-1g: 0.0304; fold change of MIP-2: −0.0070; fold change of MIP-3a: 0.3460; fold change of MIP-3b: 0.0690; fold change of MMP-2: 0.1026; fold change of MMP-3: −0.1230; fold change of MMP-10: 0.3470; fold change of MadCAM-1: −0.0787; fold change of Marapsin: −0.1703; fold change of Neprilysin: 0.5936; fold change of OPG: 0.9914; fold change of OPN: 0.8216; fold change of P-selectin: −0.2374; fold change of PDGF-AA: 0.4578; fold change of PF4: −0.6256; fold change of Pentraxin 3: −0.6735; fold change of Persephin: 0.5348; fold change of Pro-MMP-9: 0.0197; fold change of Prolactin: 0.4580; fold change of RAGE: 0.1727; fold change of RANTES: −0.2545; fold change of Resistin: 0.2752; fold change of SCF: 0.1498; fold change of SDF-1a: 0.1707; fold change of SLAM: 0.1871; fold change of Shh-N: −0.0849; fold change of TACI: 0.4640; fold change of TARC: 0.3205; fold change of TCA-3: −0.1264; fold change of TCK-1: −0.0185; fold change of TECK: 0.4529; fold change of TGFb1: 0.0743; fold change of TNF RI: −0.1306; fold change of TNF RII: −0.2811; fold change of TNFα: −0.4306; fold change of TPO: 0.2663; fold change of TRANCE: 0.0310; fold change of TREM-1: 0.0981; fold change of TROY: 0.0517; fold change of TSLP: −0.0086; fold change of TWEAK: −0.0621; fold change of TWEAK R: −0.2341; fold change of TremL1: −0.0440; fold change of VCAM-1: −0.0283; fold change of VEGF: 0.0403; fold change of VEGF R1: 0.1580; fold change of VEGF R3: 0.1061; fold change of VEGF-B: 0.0230; fold change of VEGF-D: 0.0367; fold change of bFGF: −0.4981; fold change of gp130: 0.5867; fold change of sFRP-3: 0.0607
